Patent US9138003B2, “Phosphonates and derivatives thereof as enhancers of the activity of insecticides” (Syngenta Crop Protection Inc., priority 2002, dated 2015)
“And” between values parts separate entries of the source, which are not always exact repeats. Identical values can stand only once.

Experiments:
Format in all cases: in vivo
Plutella xylostella = assay: feeding/contact test against Plutella xylostella; details: for % control, Alone: no BEEP; for % control, +BEEP: with 0.5% BEEP
Excerpt: The activity of lambda-cyhalothrin, profenofos and indoxacarb combined with 0.5% bis(2-ethylhexyl)-2-ethylhexyl phosphonate (BEEP) was compared with a corresponding formulation containing no bis(2-ethylhexyl)-2-ethylhexyl phosphonate in a feeding/contact test against Plutella xylostella. The results are set out in Table 2 and show % control.

[1] = test system: L1/L2 Liriomyza huidobriensis, leaf miner; assay: curative control of L1/L2 leaf miner within bean leaves; details: for % control, Alone: no BEEP; for % control, +BEEP: with 0.5% BEEP
Excerpt: The activity of a range of insecticides combined with 0.5% bis(2-ethylhexyl)-2-ethylhexyl phosphonate (BEEP) was compared with a corresponding formulation containing no bis(2-ethylhexyl)-2-ethylhexyl phosphonate in a test of curative control of L1/L2 Liriomyza huidobriensis, leaf miner. The results are set out in Table 1 and show % control of this leaf miner within bean leaves.

R2 Myzus persicae = assay: translaminar test (3 day assessment time) against R2 Myzus persicae; details: 0.5% BEEP, no insecticide
Excerpt: The activity of lambda-cyhalothrin, as Karate 10CS with 0.5% bis(2-ethylhexyl)-2-ethylhexyl phosphonate (BEEP) was compared with a Karate 10CS containing no bis(2-ethylhexyl)-2-ethylhexyl phosphonate in a translaminar test (3 day assessment time) against R2 Myzus persicae. The results are set out in Table 3 and show % control.

Aphis gossypii = assay: translaminar test (3 day assessment time) against Aphis gossypii; details: 0.5% BEOP, no insecticide
Excerpt: The activity of thiamethoxam as Actara 25WG with bis(2-ethylhexyl) octyl phosphonate (BEOP) at 0.5% was compared with Actara containing no bis(2-ethylhexyl) octyl phosphonate in a translaminar test (3 day assessment time) against Aphis gossypii. The results are set out in Table 4 and show % control.

With `CC1(C)[C@H](C(=O)O[C@H](C#N)c2cccc(Oc3ccccc3)c2)[C@@H]1/C=C(\Cl)C(F)(F)F` (racemic) [Lambda-cyhalothrin] the “% control, Alone” value (Plutella xylostella; 0.31 ppm) was 54%, the “% control, +BEEP” value (Plutella xylostella; 0.31 ppm) was 100% and the “% control, Alone” value (Plutella xylostella; 0.63 ppm) was 66%. For the same compound, the “% control, +BEEP” value (Plutella xylostella; 0.63 ppm) was 100%, the “% control, Alone” value (Plutella xylostella; 1.25 ppm) was 83% and the “% control, +BEEP” value (Plutella xylostella; 1.25 ppm) was 100%. The “% control, Alone” value (Plutella xylostella; 2.5 ppm) was 95% and the “% control, +BEEP” value (Plutella xylostella; 2.5 ppm) was 100%.

`CCCCC(CC)COP(=O)(CC(CC)CCCC)OCC(CC)CCCC` (stereo not shown) [BEEP, bis(2-ethylhexyl)-2-ethylhexyl phosphonate] was tested, and the “% control, Control +BEEP” value (Plutella xylostella; 0.5% BEEP, no insecticide) was 11% and 20%, the “% control, Control +BEEP” value ([1]; 0.5% BEEP, no insecticide) was 0% and the “% control, Control +BEEP” value (R2 Myzus persicae) was 4%.

For `CCCCCCCCP(=O)(OCC(CC)CCCC)OCC(CC)CCCC` (stereo not shown) [BEOP, bis(2-ethylhexyl) octyl phosphonate], the “% control, Control +BEOP” value (Aphis gossypii) was 3%.

`N#Cc1nn(-c2c(Cl)cc(C(F)(F)F)cc2Cl)c(N)c1[S+]([O-])C(F)(F)F` (stereo not shown) [Fipronil] was tested, and the “% control, Alone” value ([1]; 400 ppm) was 60%, the “% control, +BEEP” value ([1]; 400 ppm) was 100% and the “% control, Alone” value ([1]; 600 ppm) was 69%. The “% control, +BEEP” value ([1]; 600 ppm) was 100%, the “% control, Alone” value ([1]; 800 ppm) was 66% and the “% control, +BEEP” value ([1]; 800 ppm) was 100%. The “% control, Alone” value ([1]; 1000 ppm) was 83% and the “% control, +BEEP” value ([1]; 1000 ppm) was 100%.

For `COC(=O)N(C(=O)N1CO[C@@]2(C(=O)OC)Cc3cc(Cl)ccc3C2=N1)c1ccc(OC(F)(F)F)cc1` [Indoxacarb], the “% control, Alone” value (Plutella xylostella; 0.16 ppm) was 32%, the “% control, +BEEP” value (Plutella xylostella; 0.16 ppm) was 57% and the “% control, Alone” value (Plutella xylostella; 0.31 ppm) was 26%. The “% control, +BEEP” value (Plutella xylostella; 0.31 ppm) was 80%, the “% control, Alone” value (Plutella xylostella; 0.63 ppm) was 32% and the “% control, +BEEP” value (Plutella xylostella; 0.63 ppm) was 98%. The “% control, Alone” value (Plutella xylostella; 1.25 ppm) was 80% and the “% control, +BEEP” value (Plutella xylostella; 1.25 ppm) was 100%.

For `CCCSP(=O)(OCC)Oc1ccc(Br)cc1Cl` (stereo not shown) [Profenofos], the “% control, Alone” value (Plutella xylostella; 12.5 ppm) was 16%, the “% control, +BEEP” value (Plutella xylostella; 12.5 ppm) was 65% and the “% control, Alone” value (Plutella xylostella; 25 ppm) was 41%. For the same compound, the “% control, +BEEP” value (Plutella xylostella; 25 ppm) was 95%, the “% control, Alone” value (Plutella xylostella; 50 ppm) was 95% and the “% control, +BEEP” value (Plutella xylostella; 50 ppm) was 100%. For the same compound, the “% control, Alone” value (Plutella xylostella; 100 ppm) was 100% and the “% control, +BEEP” value (Plutella xylostella; 100 ppm) was 100%.

For `CCOCn1c(-c2ccc(Cl)cc2)c(C#N)c(Br)c1C(F)(F)F` [chlorfenpyr], the “% control, Alone” value ([1]; 400 ppm) was 0%, the “% control, +BEEP” value ([1]; 400 ppm) was 100% and the “% control, Alone” value ([1]; 600 ppm) was 15%. The “% control, +BEEP” value ([1]; 600 ppm) was 100%, the “% control, Alone” value ([1]; 800 ppm) was 0% and the “% control, +BEEP” value ([1]; 800 ppm) was 100%. The “% control, Alone” value ([1]; 1000 ppm) was 28% and the “% control, +BEEP” value ([1]; 1000 ppm) was 100%.

With `Nc1nc(N)nc(NC2CC2)n1` [cypromazine] the “% control, Alone” value ([1]; 25 ppm) was 27%, the “% control, +BEEP” value ([1]; 25 ppm) was 28% and the “% control, Alone” value ([1]; 50 ppm) was 57%. For the same compound, the “% control, +BEEP” value ([1]; 50 ppm) was 83%, the “% control, Alone” value ([1]; 100 ppm) was 81% and the “% control, +BEEP” value ([1]; 100 ppm) was 100%. For the same compound, the “% control, Alone” value ([1]; 200 ppm) was 100% and the “% control, +BEEP” value ([1]; 200 ppm) was 100%.

With `CN1COCN(Cc2cnc(Cl)s2)/C1=N\[N+](=O)[O-]` [thiamethoxam] the “% control, Alone” value ([1]; 400 ppm) was 0%, the “% control, +BEEP” value ([1]; 400 ppm) was 20% and the “% control, Alone” value ([1]; 600 ppm) was 0%. For the same compound, the “% control, +BEEP” value ([1]; 600 ppm) was 43%, the “% control, Alone” value ([1]; 800 ppm) was 0% and the “% control, +BEEP” value ([1]; 800 ppm) was 63%. For the same compound, the “% control, Alone” value ([1]; 1000 ppm) was 12% and the “% control, +BEEP” value ([1]; 1000 ppm) was 68%.

Abamectin was tested, and the “% control, Alone” value ([1]; 3.13 ppm) was 27%, the “% control, +BEEP” value ([1]; 3.13 ppm) was 99% and the “% control, Alone” value ([1]; 6.25 ppm) was 48%. For the same compound, the “% control, +BEEP” value ([1]; 6.25 ppm) was 100%, the “% control, Alone” value ([1]; 12.5 ppm) was 74% and the “% control, +BEEP” value ([1]; 12.5 ppm) was 100%. For the same compound, the “% control, Alone” value ([1]; 25 ppm) was 96% and the “% control, +BEEP” value ([1]; 25 ppm) was 100%.

For spinosad, the “% control, Alone” value ([1]; 400 ppm) was 42%, the “% control, +BEEP” value ([1]; 400 ppm) was 100% and the “% control, Alone” value ([1]; 600 ppm) was 73%. The “% control, +BEEP” value ([1]; 600 ppm) was 100%, the “% control, Alone” value ([1]; 800 ppm) was 82% and the “% control, +BEEP” value ([1]; 800 ppm) was 100%. For the same compound, the “% control, Alone” value ([1]; 1000 ppm) was 81% and the “% control, +BEEP” value ([1]; 1000 ppm) was 100%.
